The source of these data is patent US9821004B2, “Inhibition of a lncRNA for treatment of melanoma” (VIB VZW, priority 2013, dated 2017).

Each structure is given as a SMILES string.

For test [1], the system named is BRAFV600E human melanoma cell line. As to the kind of experiment: Apoptosis (Annexin-5-positive cells by FACS) after gapmer transfection plus BRAFV600E-inhibitor. The test is classed as cell-based. Particulars: gapmer 3 transfection; 24 hours after exposure to the BRAFV600E-inhibitor, 48 hours after transfection, FIG. 16. The protocol:
Apoptosis was measured by quantification of Annexin-5-positive cells by FACS 24 hours after exposure to the BRAFV600E-inhibitor (and 48 hours after transfection). Representative pictures of the cells are shown.
Importantly, knock-down of LINC01212 sensitizes BRAFV600E-melanoma cells to a BRAF-inhibitor currently used in the clinic, […] (FIG. 16).

In test [2] the test system is BRAFV600E-positive melanomas. Particulars: patients with BRAFV600E-positive melanomas; cited from earlier work.

Consider `CCCS(=O)(=O)Nc1ccc(F)c(C(=O)c2c[nH]c3ncc(-c4ccc(Cl)cc4)cc23)c1F` [PLX4032], for which the “sensitization of BRAFV600E-melanoma cells to BRAF-inhibitor by LINC01212 knock-down (apoptosis)” value in test [1] is on record as “sensitizes”. For the same compound, the anti-tumor response rate in test [2] was 80%.
